According to US20220162215A1, “COMPOSITIONS AND METHODS OF USING THE SAME FOR TREATMENT OF NEURODEGENERATIVE AND MITOCHONDRIAL DISEASE” (MITOKININ, INC., priority 2019, published 2022):
Like-named read-outs stand apart in the source and are kept apart here.

Legend:
HeLa MKYP cells [1] = experiment: Toxicity / cell death measured by DAPI staining (take-up); type: cell-based
Description: H2O2 treatment was performed as a control for cell death as measured by DAPI staining.
(§1) Briefly, HeLa MKYP cells were plated at 10,000 cells/well in 96 well plates along with compounds at various concentrations. Following 16 hrs of incubation, cells were treated with 1 uM FCCP/oligomycin for 6 hours, then analyzed via FACS for the presence of mitochondria in lysosomes (as determined by an emissions spectrum shift from the pH-sensitive mtKeima tag).

HeLa MKYP cells [2] = experiment: Human mitophagy assay (HeLa MKYP, mtKeima FACS, FCCP/oligomycin); type: cell-based; settings: Homo sapiens, HeLa
Description: as §1, with “tag). Examples are shown in FIG. 1 through FIG. 13 below.” for “tag).”

[3] = Table 3, read-out: Potency at 1 μM F/O toxin* (EC50 of mitophagy activation)
[4] = Table 3 Supplement A, as measured in Table 3, read-out: Potency (EC50 Max Mitophagy) (μM)*

| Compound | Toxicity (% positive for DAPI takeup @ 50 μM) (HeLa MKYP cells [1]; Table 3) | Toxicity (% positive for DAPI take-up at 50 μM)* (HeLa MKYP cells [1]; Table 3 Supplement A) | EC50 (HeLa MKYP cells [2]; [3]) | EC50 (HeLa MKYP cells [2]; [4]) | other results |
| --- | --- | --- | --- | --- | --- |
| OC[C@H](Nc1ncnc2[nH]cnc12)c1ccccc1 [Compound 75] | 14.5% | 14.49% | 3.5 µM | 3.48 µM | – |
| OC[C@H](Nc1ncnc2[nH]c(C(F)(F)F)cc12)c1ccccc1 [Compound 76] | 30.4% | 30.45% | 14.7 µM | 14.7 µM | – |
| OC[C@@H](Nc1ncnc2[nH]c(C(F)(F)F)cc12)c1ccccc1 [Compound 77] | 30.3% | 30.27% | 4.4 µM | 4.41 µM | – |
| FC(F)(F)c1cc2c(NC3CCN(Cc4ccccc4)CC3)ncnc2[nH]1 [Compound 78] | 43.9% | 43.86% | 21.4 µM | 21.4 µM | – |
| O=S1(=O)Cc2ccccc2C(Nc2ncnc3[nH]c(C(F)(F)F)cc23)C1 (stereo not drawn) [Compound 79] | 13.2% | 13.18% | > 50 µM | > 25 µM | – |
| CN1CC[C@H](Nc2ncnc3[nH]c(C(F)(F)F)cc23)c2ccccc21 [Compound 80] | 28.1% | 8.7% | 1.9 µM | 1.81 µM | – |
| c1ccc2c(c1)OCC[C@H]2Nc1ncnc2[nH]c(C3CC3)cc12 [Compound 111] | 17.3% | – | 2 µM | – | Max cell death at 25 uM compound, 1 uM FO (HeLa MKYP cells [1]; Table 3 Supplement B, 25 uM compound, 1 uM FO): 17.3%; Cell death at 25 μM (no FO) (HeLa MKYP cells [1]; Table 3 Supplement B, 25 μM, no FO): 7.26%; EC50 (HeLa MKYP cells [2]; Table 3 Supplement B, read-out: Mitophagy EC50 (HeLa mKeima assay)): 1.98 µM |
| CCCCNc1ncnc2[nH]c(C3CC3)nc12 [Compound 34886, N-butyl-8-cyclopropyl-9H-purin-6-amine] | – | – | – | – | Toxicity (% positive for DAPI takeup @ 50 μM) (HeLa MKYP cells [1]; Table 4): 9.1%; EC50 (HeLa MKYP cells [2]; Table 4, read-out: Potency (EC50 Max Mitophagy)): 9.1 µM |
| c1coc(CNc2ncnc3[nH]c(C4CCC4)nc23)c1 [EP-0035338, 8-cyclobutyl-N-(2-furylmethyl)-9H-purin-6-amine] | – | 3.04% | – | > 25 µM | – |
| CCCCNc1ncnc2[nH]c(C3CCC3)nc12 [EP-0035339, N-butyl-8-cyclobutyl-9H-purin-6-amine] | – | 6.13% | – | > 25 µM | – |
| COc1cc(CNc2ncnc3[nH]c(C4CC4)nc23)ccn1 [EP-0036032, 8-cyclopropyl-N-[(2-methoxy-4-pyridyl)methyl]-9H-purin-6-amine] | – | 7.06% | – | > 25 µM | – |
| c1ncc(CNc2ncnc3[nH]c(C4CC4)nc23)cn1 [EP-0036050, 8-cyclopropyl-N-(pyrimidin-5-ylmethyl)-9H-purin-6-amine] | – | – | – | > 25 µM | Toxicity (% positive for DAPI take-up at 50 μM)* (HeLa MKYP cells [1]; human): 7.06% |
